Source: patent US4732970A, “Antitumor amino acid and peptide derivatives of 1,4-bis(aminoalkyl and hydroxy-aminoalkyl)amino)-5,8-dihydroxyanthraquinones” (priority 1986, dated 1988)

Test system: lymphocytic leukemia P388
Assay: Lymphocytic Leukemia P388 Test
Type: in vivo, BDF1 mice
Conditions: for Median Survival: BDF1 mice; for T/C × 100 (%): ratio of survival time treated/control
Experimental: The animals used were BDF1 mice, all of one sex, weighing a minimum of 18 g and all within a 3 g weight range. There were 5 or 6 mice per test group. The tumor transplant was by intraperitoneal injection of 0.5 ml of dilute ascitic fluid containing 10^6 cells of lymphocytic leukemia P388. The test compounds were administered intraperitoneally on days 1, 5 and 9 (relative to tumor inocu-lation) at various doses. The animals were weighed and survivors recorded on a regular basis for 60 days. The median survival time and the ratio of survival time for treated (T)/control (C) animals were calculated.

[1] = dose 0.75 mg/kg intraperitoneally on days 1, 5 and 9
[2] = dose 1.5 mg/kg intraperitoneally on days 1, 5 and 9
[3] = dose 3 mg/kg intraperitoneally on days 1, 5 and 9
[4] = Mus musculus, P388, ip, read-out: T/C × 100 (%)

| SMILES | Median Survival [1] | T/C × 100 (%) [1] | Median Survival [2] | T/C × 100 (%) [2] | Median Survival [3] | T/C × 100 (%) [3] | response vs control in vivo at 0.75 mg/kg [4] | response vs control in vivo at 1.5 mg/kg [4] | response vs control in vivo at 3 mg/kg [4] |
| --- | --- | --- | --- | --- | --- | --- | --- | --- | --- |
| CC(C)(C)OC(=O)N[C@@H](CCC(=O)OCc1ccccc1)C(=O)NCCNc1ccc(NCCNC(=O)[C@H](CCC(=O)OCc2ccccc2)NC(=O)OC(C)(C)C)c2c1C(=O)c1c(O)ccc(O)c1C2=O (relative stereo) [Example 43, [S-(R*,R*)]-5,5'-(9,10-Dihydro-5,8-dihydroxy-9,10-dioxo-1,4-anthracenediyl)bis(imino-2,1-ethanediylimino)]bis[4-[[(1,1-dimethylethoxy)carbonvl]amino]-5-oxopentanoic acid]bis(phenylmethyl)ester] | 16.5 days | 150% | 17.0 days | 155% | 18.0 days | 164% |  |  |  |
| N[C@@H](CCC(=O)OCc1ccccc1)C(=O)NCCNc1ccc(NCCNC(=O)[C@@H](N)CCC(=O)OCc2ccccc2)c2c1C(=O)c1c(O)ccc(O)c1C2=O.O=C(O)C(F)(F)F.O=C(O)C(F)(F)F (relative stereo) [Example 44, [S-(R*,R*)]-5,5'-[(9,10-Dihydro-5,8-dihydroxy-9,10-dioxo-1,4-anthracenediyl)bis(imino-2,1-ethanediylimino)]bis[4-amino-5-oxopentanoic acid]bis(phenylmethyl)ester, bis(trifluoroacetate)] | 18.0 days | 164% | 19.5 days | 177% | 24.0 days | 218% |  |  |  |
| CC(C)(C)OC(=O)N[C@@H](CC(=O)OCc1ccccc1)C(=O)NCCNc1ccc(NCCNC(=O)[C@H](CC(=O)OCc2ccccc2)NC(=O)OC(C)(C)C)c2c1C(=O)c1c(O)ccc(O)c1C2=O (relative stereo) [Example 45, [S-(R*,R*)]-4,4'-[(9,10-Dihydro-5,8-dihydroxy-9,10-dioxo-1,4-anthracenediyl)bis(imino-2,1-ethanediylimino)]bis[3-[[(1,1-dimethylethoxy)carbonyl]amino]-4-oxobutanoic acid]bis(phenylmethyl)ester] | 14.0 days | 127% | 15.5 days | 141% | 18.0 days | 164% |  |  |  |
| N[C@@H](CC(=O)OCc1ccccc1)C(=O)NCCNc1ccc(NCCNC(=O)[C@@H](N)CC(=O)OCc2ccccc2)c2c1C(=O)c1c(O)ccc(O)c1C2=O.O=C(O)C(F)(F)F.O=C(O)C(F)(F)F (relative stereo) [Example 46, [S-(R*,R*)]-4,4'-[(9,10-Dihydro-5,8-dihydroxy-9,10-dioxo-1,4-anthracenediyl)bis(imino-2,1-ethanediylimino)]bis[3-amino-4-oxobutanoic acid]bis(phenylmethyl)ester, bis(trifluoroacetate)] | 21.0 days | 191% | 25.5 days | 232% | 26.0 days | 236% |  |  |  |
| CC(C)(C)OC(=O)CC[C@H](NC(=O)OCc1ccccc1)C(=O)NCCNc1ccc(NCCNC(=O)[C@H](CCC(=O)OC(C)(C)C)NC(=O)OCc2ccccc2)c2c1C(=O)c1c(O)ccc(O)c1C2=O (relative stereo) [Example 47, [S-(R*,R*)]-5,5'-[(9,10-Dihydro-5,8-dihydroxy-9,10-dioxo-1,4-anthracenediyl)bis(imino-2,1-ethanediylimino)]bis[5-oxo-4-[[(phenylmethoxy)carbonyl]amino]pentanoic acid], bis(1,1-dimethylethyl)ester] | 15.0 days | 136% | 17.0 days | 155% | 16.5 days | 150% |  |  |  |
| O=C(O)C(F)(F)F.O=C(O)C(F)(F)F.O=C(O)CC[C@H](NC(=O)OCc1ccccc1)C(=O)NCCNc1ccc(NCCNC(=O)[C@H](CCC(=O)O)NC(=O)OCc2ccccc2)c2c1C(=O)c1c(O)ccc(O)c1C2=O (relative stereo) [Example 48, [S-(R*,R*)]-5,5'-[(9,10-Dihydro-5,8-dihydroxy-9,10-dioxo-1,4-anthracenediyl)bis(imino-2,1-ethanediylimino)]bis[5-oxo-4-[[(phenylmethoxy)carbonyl]amino]pentanoic acid, bis(trifluoroacetate)] | 14.0 days | 117% | 15.0 days | 125% | 16.5 days | 138% |  |  |  |
| Br.Br.NCC(=O)N[C@@H](Cc1ccccc1)C(=O)NCCNc1ccc(NCCNC(=O)[C@H](Cc2ccccc2)NC(=O)CN)c2c1C(=O)c1c(O)ccc(O)c1C2=O (relative stereo) [Example 54, [S-(R*,R*)]-N,N'-[(9,10-Dihydro-5,8-dihydroxy-9,10-dioxo-1,4-anthracenediyl)bis(imino-2,1-ethanediyl)]bis[glycyl-L-phenylalaninamide]dihydrobromide] | 18.5 days | 185% | 19.0 days | 195% | 19.0 days | 190% |  |  |  |
| C[C@H](N)C(=O)NCCNc1ccc(NCCNC(=O)[C@H](C)N)c2c1C(=O)c1c(O)ccc(O)c1C2=O.Cl.Cl (stereo in doubt) [Example 16, [S-(R*,R*)]-N,N'-[(9,10-Dihydro-5,8-dihydroxy-9,10-dioxo-1,4-anthracenediyl)bis(imino-2,1-ethanediyl)]bis-[2-aminopropanamide], dihydrochloride] | 25.5 days | 232% | 52.5 days | 477% | 42.5 days | 386% |  |  |  |
| CC(C)C[C@H](N)C(=O)NCCNc1ccc(NCCNC(=O)[C@@H](N)CC(C)C)c2c1C(=O)c1c(O)ccc(O)c1C2=O.Cl.Cl (stereo in doubt) [Example 18, [S-(R*,R*)]-N,N'-[(9,10-Dihydro-5,8-dihydroxy-9,10-dioxo-1,4-anthracenediyl)bis(imino-2,1-ethanediyl)]bis-[-amino-4-methylpentanamide], dihydrochloride] | 25.5 days | 213% | 26.0 days | 217% | 18.0 days | 150% |  |  |  |
| CC(C)C[C@@H](N)C(=O)NCCNc1ccc(NCCNC(=O)[C@H](N)CC(C)C)c2c1C(=O)c1c(O)ccc(O)c1C2=O.Cl.Cl (stereo in doubt) [Example 20, [(R*,R*)]-N,N'-[(9,10-Dihydro-5,8-dihydroxy-9,10-dioxo-1,4-anthracenediyl)bis(imino-2,1-ethanediyl)]bis-[2-amino-4-methylentanamide], dihydrochloride] | 20.5 days | 171% | 22.5 days | 188% | 23.5 days | 196% |  |  |  |
| C[C@@H](N)C(=O)NCCNc1ccc(NCCNC(=O)[C@@H](C)N)c2c1C(=O)c1c(O)ccc(O)c1C2=O.Cl.Cl (stereo in doubt) [Example 25, [R-(R*,R*)]-N,N'-[(9,10-Dihydro-5,8-dihydroxy-9,10-dioxo-1,4-anthracenediyl)bis(imino-2,1-ethanediyl)]bis-[2-aminopropanamide], dihydrochloride] | 19.0 days | 173% | 20.0 days | 182% | 24.0 days | 218% |  |  |  |
| Br.Br.CC(C)C[C@H](N)C(=O)NCCNc1ccc(NCCNC(=O)[C@@H](N)CC(C)C)c2c1C(=O)c1c(O)ccc(O)c1C2=O (stereo in doubt) [Example 31, [S-(R*,R*)]-N,N'-[(9,10-Dihydro-5,8-dihydroxy-9,10-dioxo-1,4-anthracenediyl)bis(imino-2,1-ethanediyl)]bis[2-amino-4-methylpentanamide], dihydrobromide] | 17.5 days | 175% | 18.0 days | 180% | 21.0 days | 210% |  |  |  |
| C[C@H](NC(=O)OC(C)(C)C)C(=O)N[C@@H](C)C(=O)N(CCNc1ccc(NCCN(C(=O)[C@H](C)NC(=O)[C@H](C)NC(=O)OC(C)(C)C)[C@@H](C)C(=O)O)c2c1C(=O)c1c(O)ccc(O)c1C2=O)[C@@H](C)C(=O)O [Example 7., N,N'-[(9,10-Dihydro-5,8-dihydroxy-9,10-dioxo-1,4-anthracenediyl)bis(imino-2,1-ethanediyl)]bis[N-[(1,1-dimethylethoxy)carbonyl]-L-alanyl-L-alanyl-L-alanine]] | 18.5 days |  | 18.0 days |  | 19.0 days |  | 176% | 171% | 181% |
